Values after ≈ are worked out from the molar mass of the structure shown. Read-outs that look alike come from different tables or passages of the source.
What was measured:
[1] = tested on: store-operated calcium entry (SOCE) in THP-1 cells; assay: SOCE inhibition, combinatory (isobolographic) analysis, THP-1 cells; format: cell-based, human; settings: Homo sapiens, THP-1, read-out: SOCE IC50
Method: Bar graphs shown in FIGS. 10A-10Z and 10BB display SOCE amplitudes calculated from area under the curve (AUC) of the SOCE signals and normalized to SOCE in the presence of gadolinium. Combinatory effects were assessed using an isobolographic analysis approach, where CBGA was paired with another cannabinoid using concentrations of CBGA corresponding to 50%, 40%, 30%, 20%, 10%, and 0% inhibition (as derived from the IC50 curves of FIGS. 9A-9P) and combined with concentrations of the paired cannabinoid, so that each combination would be expected to inhibit 50% of the Ca^2+ signal (e.g., the CBGA concentration causing 50% inhibition was tested alone without the other cannabinoid, the CBGA concentration expected to block 40% of the signal was combined with the concentration of the other cannabinoid expected to inhibit 10%, the CBGA concentration expected to block 30% of the signal was combined with the concentration of the other cannabinoid expected to inhibit 20%, and so on). Simple additivity of cannabinoid pairs would be expected to inhibit the Ca^2+ signal by 50%. All the data in these experiments represent an average of 3 independent runs and the values are graphed as mean values±SEM.

[2] = tested on: store-operated calcium entry (SOCE) in U937 monocytes; assay: SOCE inhibition, Fura-2 Ca2+ bioassay, thapsigargin-induced, U937 cells; format: cell-based, human; settings: Homo sapiens
[3] = tested on: store-operated calcium entry (SOCE) in RBL-2H3 rat mast cells; assay: SOCE inhibition, Fura-2 Ca2+ bioassay, thapsigargin-induced, RBL-2H3 cells; format: cell-based; settings: Rattus norvegicus
[4] = tested on: store-operated calcium entry (SOCE) in Jurkat T cells; assay: SOCE inhibition, Fura-2 Ca2+ bioassay, thapsigargin-induced, Jurkat cells; format: cell-based, human; settings: for IC50: Homo sapiens, Jurkat; for Combinatory effect on SOCE inhibition when paired with CBGA: isobolographic analysis, pairs expected to inhibit 50%
[5] = tested on: store-operated calcium entry (SOCE) in THP-1 cells; assay: SOCE inhibition, combinatory (isobolographic) analysis, THP-1 cells; format: cell-based, human; settings: 10 μM cannabinoid plus 2.2 μM CBGA
[6] = tested on: store-operated calcium entry (SOCE) in HEK293 cells; assay: SOCE inhibition, Fura-2 Ca2+ bioassay, thapsigargin-induced, HEK293 cells; format: cell-based, human; settings: for IC50: Homo sapiens
[7] = tested on: store-operated calcium entry (SOCE) in Luva human mast cells; assay: SOCE inhibition, Fura-2 Ca2+ bioassay, thapsigargin-induced, Luva cells; format: cell-based; settings: Homo sapiens, Mast cell, read-out: IC50 SOCE Luva
TRPM7 [8] = target: T1, TRPM7 (Homo sapiens, UniProt Q96QT4); assay: Whole-cell patch clamp of TRPM7 over-expressed in HEK293 cells; format: cell-based; parameters: expressed in transfected cells; host or cells: HEK293; settings: HEK293 over-expressing TRPM7; 1, 3, 10 or 30 μM; +40 mV; 0 ATP, 0 Mg2+
Method: Activation of TRPM7 over-expressed in HEK293 cells by perfusing the cells with intracellular solution containing 0 ATP and 0 Mg^2+, resulting in fast and maximal activation of TRPM7 outward currents at +40 mV is shown in FIG. 14.
Data from dose-response curves for the inhibition of TRPM7 currents (dark gray symbols) obtained in experiments shown in FIG. 14 and SOCE-mediated increases in intracellular Ca^2+ (light gray symbols) are shown in FIG. 15.
Target sequence in this assay (Q96QT4 whole entry, species assumed): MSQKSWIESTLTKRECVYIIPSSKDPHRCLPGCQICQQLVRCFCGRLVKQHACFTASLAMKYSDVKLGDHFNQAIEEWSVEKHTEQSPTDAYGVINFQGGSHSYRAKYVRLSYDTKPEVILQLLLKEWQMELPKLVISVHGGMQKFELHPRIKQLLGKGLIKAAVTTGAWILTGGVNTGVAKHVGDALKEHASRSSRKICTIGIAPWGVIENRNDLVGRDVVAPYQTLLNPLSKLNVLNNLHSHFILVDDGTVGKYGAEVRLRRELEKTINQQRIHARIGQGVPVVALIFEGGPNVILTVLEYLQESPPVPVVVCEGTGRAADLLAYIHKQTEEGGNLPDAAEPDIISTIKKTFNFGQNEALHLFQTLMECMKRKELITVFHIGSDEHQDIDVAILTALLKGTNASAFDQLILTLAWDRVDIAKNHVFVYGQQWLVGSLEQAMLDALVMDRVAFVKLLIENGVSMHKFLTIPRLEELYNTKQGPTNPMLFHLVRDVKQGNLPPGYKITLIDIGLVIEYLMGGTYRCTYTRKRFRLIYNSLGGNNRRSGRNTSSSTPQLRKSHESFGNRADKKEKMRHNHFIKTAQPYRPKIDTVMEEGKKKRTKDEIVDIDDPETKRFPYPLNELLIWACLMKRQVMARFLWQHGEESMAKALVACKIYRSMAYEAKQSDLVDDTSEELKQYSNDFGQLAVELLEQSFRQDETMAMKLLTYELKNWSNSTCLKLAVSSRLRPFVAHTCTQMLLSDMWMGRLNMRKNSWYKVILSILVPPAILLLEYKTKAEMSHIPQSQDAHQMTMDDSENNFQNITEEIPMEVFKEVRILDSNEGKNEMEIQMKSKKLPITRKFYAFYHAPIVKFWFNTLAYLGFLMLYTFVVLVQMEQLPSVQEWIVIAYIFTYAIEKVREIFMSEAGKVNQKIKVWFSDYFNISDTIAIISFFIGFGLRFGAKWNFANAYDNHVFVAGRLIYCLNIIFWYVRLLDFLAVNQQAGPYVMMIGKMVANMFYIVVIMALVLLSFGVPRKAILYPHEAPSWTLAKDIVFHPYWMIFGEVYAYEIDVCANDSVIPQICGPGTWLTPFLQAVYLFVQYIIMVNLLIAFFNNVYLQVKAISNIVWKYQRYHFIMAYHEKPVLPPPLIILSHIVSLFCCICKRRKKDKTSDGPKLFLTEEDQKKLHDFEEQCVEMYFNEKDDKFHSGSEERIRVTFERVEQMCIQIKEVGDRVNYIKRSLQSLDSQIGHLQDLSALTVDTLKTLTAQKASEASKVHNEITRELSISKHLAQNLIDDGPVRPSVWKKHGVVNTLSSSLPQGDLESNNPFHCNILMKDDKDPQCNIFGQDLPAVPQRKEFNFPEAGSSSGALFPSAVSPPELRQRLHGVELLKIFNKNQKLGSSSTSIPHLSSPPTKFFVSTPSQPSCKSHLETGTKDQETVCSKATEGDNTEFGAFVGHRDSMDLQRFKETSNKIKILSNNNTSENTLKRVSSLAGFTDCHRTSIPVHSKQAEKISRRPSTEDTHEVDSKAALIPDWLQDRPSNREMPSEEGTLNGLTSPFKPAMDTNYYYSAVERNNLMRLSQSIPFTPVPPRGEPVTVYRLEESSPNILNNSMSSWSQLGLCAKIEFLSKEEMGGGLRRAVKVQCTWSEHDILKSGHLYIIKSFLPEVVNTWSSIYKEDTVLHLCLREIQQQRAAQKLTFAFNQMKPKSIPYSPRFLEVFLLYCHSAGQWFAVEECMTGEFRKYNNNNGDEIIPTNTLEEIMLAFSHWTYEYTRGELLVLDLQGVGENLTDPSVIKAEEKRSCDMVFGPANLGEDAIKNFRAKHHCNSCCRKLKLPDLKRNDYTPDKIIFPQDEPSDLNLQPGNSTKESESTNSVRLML

TRPM7 [9] = target: T1, TRPM7; assay: Whole-cell patch clamp of TRPM7 outward current in Jurkat cells; format: cell-based; parameters: endogenous in cells; host or cells: Jurkat; settings: 10 μM, +40 mV, removal of intracellular ATP
Method: (§1) Inward CRAC currents were induced at −120 mV (gray trace) and outward currents at +40 mV (black trace, where CRAC currents reverse and are essentially absent). At the +40 mV voltage potential, TRPM7 channels produce monovalent outward currents. Perfusion of 50 μM IP3 activates ICRAC at −120 mV as above and the removal of intracellular ATP slowly activates TRPM7 current at +40 mV. Application of 10 μM CBGA blocks both outward TRPM7 and inward CRAC currents (see FIG. 13, black and gray traces, respectively). Without being bound by theory, CBGA may also block TRPM7's kinase activity, similar to other TRPM7 blockers such as NS8593.
Target sequence in this assay (Q96QT4 whole entry): as the sequence (Q96QT4 whole entry, species assumed) above

CRAC channels (ICRAC) = assay: Whole-cell patch clamp of IP3-induced ICRAC in Jurkat cells; format: cell-based, human; settings: 10 μM, 50 μM IP3, −120 mV
Method: The ability of CBGA to inhibit store-operated calcium entry (SOCE) within cells was experimentally interrogated (see FIG. 12). Jurkat cells were perfused with 50 μM IP3 to induce store depletion and activation of CRAC channels (the resulting Ca^2+ inward current is known as ICRAC). ICRAC is a long-lasting inward current at −120 mV membrane potential (black trace) that can be blocked by 10 μM CBGA (gray trace).
as §1

[10] = tested on: store-operated calcium entry (SOCE) in various cell types; assay: Thapsigargin-induced SOCE Fura-2 bioassay across various cell types; format: cell-based; settings: 1 μM; positive control; Jurkat, U937, Luva, RBL-2H3, HL-60, HEK-293
Method: A Fura-2 calcium flux assay was used to determine cytoplasmic Ca^2+ levels. Briefly, cells were preloaded with Fura-2 AM, and fluorescence intensity in cells intensity was measured over time as a ratio of detected 510 nm fluorescent light emission intensity when excited by UV light at 340 nm and 380 nm wavelengths (f340/f380 ratio). Gadolinium (Gd^3+) is known to block SOCE at a concentration of 1 μM and was used at 1 μM as a positive control in these experiments (gray line).
FIGS. 11TT-11-XX show dose-response curves for hemp varieties on store-operated calcium entry (SOCE) induced by thapsigargin in HEK-293, Jurkat, U937, LUVA, and RBL-2H3 cells. Hemp extracts (cold extracted and unheated) were tested at 6 different doses from 1 to 50 μg/ml. The effects on SOCE amplitude were plotted in a dose-dependent manner to determine the IC50 for each tested compound (see Table 6 for determined IC50 values). All data are averages of three independent runs±SEM. Tested hemp varieties were: Otto-18, Harlequin (HAR), and BOAX.
The general extraction method of Example 6 was carried out, and hemp extracts were subjected to heat treatment prior to testing for activity in the SOCE assay. In some instances, unheated and heated hemp extracts were combined prior to activity testing in the SOCE assay.

[11] = U-937, read-out: IC50 SOCE U937, Table 5, individual cannabinoids, U937
[12] = RBL-2H3, read-out: IC50 SOCE RBL-2H3, Table 5, individual cannabinoids, RBL-2H3
[13] = read-out: IC50 SOCE Jurkat, Table 5, individual cannabinoids
[14] = HEK293, read-out: IC50 SOCE HEK-293, Table 5, individual cannabinoids, HEK-293

Compound | IC50 [1] | IC50 [2, 11] | IC50 [3, 12] | IC50 [4, 13] | IC50 on SOCE relative to acidic variations ([4]; Jurkat cells, dose response 0 to 30 μM) | Combinatory effect on SOCE inhibition when paired with CBGA ([4]; Jurkat cells) | Combinatory effect when paired with 2.2 μM CBGA [5] | IC50 [6, 14] | IC50 [7] | IC50 ([4]; read-out: IC50 inhibition of SOCE-mediated increases in intracellular Ca2+, FIG. 15, cell type not stated there) | Block of TRPM7 current (TRPM7 [8]) | Block of outward TRPM7 current (TRPM7 [9]) | Inhibitory effect in immune cells compared with non-immune HEK293 cells ([6]; Jurkat vs HEK293 screening, 10 μM) | Block of inward CRAC current (ICRAC) (CRAC channels (ICRAC)) | IC50 ([2]; U-937, read-out: IC50 SOCE U937) | IC50 ([3]; RBL-2H3, read-out: IC50 SOCE RBL-2H3) | IC50 ([4]; read-out: IC50 SOCE Jurkat) | IC50 ([6]; HEK293, read-out: IC50 SOCE HEK-293) | Effect on thapsigargin-induced SOCE (f340/f380 ratio) [10]
CCCCCc1cc(O)c(C/C=C(\C)CCC=C(C)C)c(O)c1 [CBG, (E)-2-(3,7-dimethylocta-2,6-dien-1-yl)-5-pentylbenzene-1,3-diol] | > 30 µM | 33.5 µg/mL (≈ 106 µM) | 3.29 µg/mL (≈ 10.4 µM) | 2.36 µg/mL | higher IC50 than their acidic variations | stronger than predicted inhibitions | simple additive agonists | > 50 µg/mL | 33.6 µg/mL (≈ 106 µM) |  |  |  |  |  |  |  |  |  | 
CCCCCc1cc(O)c(C/C=C(\C)CCC=C(C)C)c(O)c1C(=O)O [CBGA, (E)-3-(3,7-dimethylocta-2,6-dien-1-yl)-2,4-dihydroxy-6-pentylbenzoic acid] | ~2.2 µM | 2.23 µg/mL (≈ 6.19 µM) | 0.27 µg/mL (≈ 0.749 µM) | 0.53 µg/mL |  |  |  | 5.72 µg/mL (≈ 15.9 µM) | 2.21 µg/mL (≈ 6.13 µM) | ~2 µM | dose-dependent block | blocks | more potent | completely blocks |  |  |  |  | 
CCCc1cc(O)c(C/C=C(\C)CCC=C(C)C)c(O)c1 [CBGV, (E)-2-(3,7-dimethylocta-2,6-dien-1-yl)-5-propylbenzene-1,3-diol] | > 30 µM |  |  |  |  | stronger than predicted inhibitions | simple additive agonists |  | 40.7 µg/mL (≈ 141 µM) |  |  |  |  |  | 14.5 µg/mL (≈ 50.3 µM) | 6.46 µg/mL (≈ 22.4 µM) | 5.27 µg/mL | 30.9 µg/mL (≈ 107 µM) | 
CCCCCc1cc(O)c2c(c1)OC(C)(C)c1ccc(C)cc1-2 [CBN, 6,6,9-trimethyl-3-pentyl-6H-benzo[c]chromen-1-ol] | > 30 µM | 45.3 µg/mL (≈ 146 µM) | 33.4 µg/mL (≈ 108 µM) | 9.09 µg/mL |  | Simple additive behavior | simple additive agonists | 42.6 µg/mL (≈ 137 µM) | > 50 µg/mL |  |  |  |  |  |  |  |  |  | 
[Cl][Gd]([Cl])[Cl] [Gd^3+, Gadolinium Chloride] |  |  |  |  |  |  |  |  |  |  |  |  |  |  |  |  |  |  | inhibited SOCE
CCCCCc1cc(O)c2c(c1)OC(C)(C)[C@@H]1CC=C(C)C[C@@H]21 [Δ8-THC, (6aR,10aR)-6,6,9-trimethyl-3-pentyl-6a,7,10,10a-tetrahydro-6H-benzo[c]chromen-1-ol] | > 30 µM | > 50 µg/mL | 39.7 µg/mL (≈ 126 µM) | 14.2 µg/mL |  | inhibit less than predicted | sub-additive | > 50 µg/mL | > 50 µg/mL |  |  |  |  |  |  |  |  |  | 

— patent US20230172899A1, “CANNABINOID COMPOSITIONS” (priority 2020, published 2023)
